Test results from paper PMC7391767, “Molecular mechanisms underlying menthol binding and activation of TRPM8 ion channel” (Nature Communications, 2020).
Where “and” joins values, the source holds several entries; their conditions need not be identical. Identical values can stand only once. Entries after “also recorded” stand apart in the source; their conditions may differ.

How the values were obtained:
Type in all cases: cell-based
[1] = target: T1, TRPM8 Y745H (Mus musculus, UniProt Q8R4D5, Y745H); assay: whole-cell patch-clamp recording of menthol activation; details: Y745H mutation
T1 construct: expressed in transfected cells; host or cells: HEK293T
Method: Murine TRPM8 was used in this study. Point mutations were made by Fast Mutagenesis Kit V2 (SBS Genetech). Primers used to generate point mutations are summarized in Supplementary Table 2.
HEK293T cells purchased from Kunming Cell Bank, Kunming Institute of Zoology, Chinese Academy of Sciences (ATCC, CRL-3216) were cultured in Dulbecco’s modified Eagle’s medium supplemented with 20 mM L-glutamine and 10% fetal bovine serum. Cells were transiently transfected with cDNA constructs by Lipofectamine 3000 (Life Technologies) following the manufacturer’s protocol. Patch-clamp recordings were performed 1–2 days after transfection.
Patch-clamp recordings were performed with a HEKA EPC10 amplifier controlled by PatchMaster software (HEKA). Whole-cell recordings were performed at ±80 mV. Patch pipettes were prepared from borosilicate glass and fire-polished to resistance of ~4 MΩ. For whole-cell recording, serial resistance was compensated by 60%. For single-channel recordings, patch pipettes were fire-polished to a higher resistance of 6-to-10 MΩ and then recorded in the inside-out configuration. To maximize the chance of obtaining a patch with only one channel, single-channel recordings were performed about 8 h after transfection. A solution with 130 mM NaCl, 10 mM glucose, 0.2 mM EDTA, and 3 mM HEPES (pH 7.2) was used in both bath and pipette for either whole-cell or single-channel recordings. […]

[2] = target: T2, ANAP-incorporated TRPM8 (Mus musculus, UniProt Q8R4D5, A875X); parameters: Shifts in ANAP emission, Ave: unit: nm
T2 construct: expressed in transfected cells; host or cells: HEK293 cells, co-transfected with the pANAP vector
Method: (§1) As fluorescence emission peak of ANAP shifts to a longer wavelength in more hydrophilic environment, we measured the shift in ANAP emission peak to report conformational changes. Fluorescence properties of ANAP may also be affected by other factors such as temperature and pH[31], so we performed our ANAP experiments always at room temperature (22 ± 1°C). To control for changes in solution pH, we added 3 mM HEPES in ANAP imaging solution to buffer the pH at 7.2. We genetically integrated ANAP into a specific site on TRPM8 with special tRNA and synthetase encoded by pANAP vector (Fig. 5d).
(§2) L-ANAP methyl ester was purchased from AsisChem. pANAP vector was purchased from Addgene. ANAP was incorporated into TRPM8 by introducing a TAG amber stop codon mutation as previously reported. Briefly, after co-transfection of both TRPM8 and pANAP vectors, ANAP was directly added to the culture medium to the final concentration of 20 µM. After 1–2 days, ANAP-containing culture medium was completely changed. Cells were further cultured in ANAP-free medium overnight before experiments.
(§3) ANAP fluorescence was excited by the Ar laser with a 375/28 excitation filter, a T400lp dichroic mirror, and a 435LP emission filter on an inverted fluorescence microscope (Nikon TE2000-U) using a ×40 oil-immersion objective (NA 1.3). Emission spectrum of ANAP was imaged with an Acton SpectraPro 2150i spectrograph in conjunction with an optiMOS CCD camera (Qimaging, USA). We determined the ANAP emission peak value by fitting the emission spectrum with a skewed Gauss distribution in Igor Pro version 6.1 (WaveMatrix), and then the difference in emission peak values measured in the absence and presence of menthol was reported as the shift of ANAP emission.

[3] = target: T3, ANAP-incorporated TRPM8 (Mus musculus, UniProt Q8R4D5, C1006X); parameters: Shifts in ANAP emission, Ave: unit: nm; details: ANAP incorporation site C1006; average shift, menthol activated vs resting state
T3 construct: expressed in transfected cells; host or cells: HEK293 cells, co-transfected with the pANAP vector
Method: as §1, §2, §3

[4] = target: T4, ANAP-incorporated TRPM8 (Mus musculus, UniProt Q8R4D5, F847X); parameters: Shifts in ANAP emission, Ave: unit: nm; details: ANAP incorporation site F847
T4 construct: expressed in transfected cells; host or cells: HEK293 cells, co-transfected with the pANAP vector
Method: as §1, §2, §3

[5] = target: T5, ANAP-incorporated TRPM8 (Mus musculus, UniProt Q8R4D5, F872X); parameters: Shifts in ANAP emission, Ave: unit: nm; details: ANAP incorporation site F872
T5 construct: expressed in transfected cells; host or cells: HEK293 cells, co-transfected with the pANAP vector
Method: as §1, §2, §3

[6] = target: T6, ANAP-incorporated TRPM8 (Mus musculus, UniProt Q8R4D5, I962X); parameters: Shifts in ANAP emission, Ave: unit: nm; details: ANAP incorporation site I962, menthol activated vs resting state
T6 construct: expressed in transfected cells; host or cells: HEK293 cells, co-transfected with the pANAP vector
Method: as §1, §2, §3

[7] = target: T7, ANAP-incorporated TRPM8 (Mus musculus, UniProt Q8R4D5, L774X); parameters: Shifts in ANAP emission, Ave: unit: nm
T7 construct: expressed in transfected cells; host or cells: HEK293 cells, co-transfected with the pANAP vector
Method: as §1, §2, §3

[8] = target: T8, ANAP-incorporated TRPM8 (Mus musculus, UniProt Q8R4D5, N852X); parameters: Shifts in ANAP emission, Ave: unit: nm; details: ANAP incorporation site N852
T8 construct: expressed in transfected cells; host or cells: HEK293 cells, co-transfected with the pANAP vector
Method: as §1, §2, §3

[9] = target: T9, ANAP-incorporated TRPM8 (Mus musculus, UniProt Q8R4D5, P734X); parameters: Shifts in ANAP emission, Ave: unit: nm; details: ANAP incorporation site P734; average shift, menthol activated vs resting state
T9 construct: expressed in transfected cells; host or cells: HEK293 cells, co-transfected with the pANAP vector
Method: as §1, §2, §3

[10] = target: T10, ANAP-incorporated TRPM8 (Mus musculus, UniProt Q8R4D5, Q1003X); parameters: Shifts in ANAP emission, Ave: unit: nm; details: ANAP incorporation site Q1003; average shift, menthol activated vs resting state
T10 construct: expressed in transfected cells; host or cells: HEK293 cells, co-transfected with the pANAP vector
Method: as §1, §2, §3

[11] = target: T11, ANAP-incorporated TRPM8 (Mus musculus, UniProt Q8R4D5, Q894X); parameters: Shifts in ANAP emission, Ave: unit: nm; details: ANAP incorporation site Q894
T11 construct: expressed in transfected cells; host or cells: HEK293 cells, co-transfected with the pANAP vector
Method: as §1, §2, §3

[12] = average shift, menthol activated vs resting state

T1 sequence (Q8R4D5 whole entry Y745H): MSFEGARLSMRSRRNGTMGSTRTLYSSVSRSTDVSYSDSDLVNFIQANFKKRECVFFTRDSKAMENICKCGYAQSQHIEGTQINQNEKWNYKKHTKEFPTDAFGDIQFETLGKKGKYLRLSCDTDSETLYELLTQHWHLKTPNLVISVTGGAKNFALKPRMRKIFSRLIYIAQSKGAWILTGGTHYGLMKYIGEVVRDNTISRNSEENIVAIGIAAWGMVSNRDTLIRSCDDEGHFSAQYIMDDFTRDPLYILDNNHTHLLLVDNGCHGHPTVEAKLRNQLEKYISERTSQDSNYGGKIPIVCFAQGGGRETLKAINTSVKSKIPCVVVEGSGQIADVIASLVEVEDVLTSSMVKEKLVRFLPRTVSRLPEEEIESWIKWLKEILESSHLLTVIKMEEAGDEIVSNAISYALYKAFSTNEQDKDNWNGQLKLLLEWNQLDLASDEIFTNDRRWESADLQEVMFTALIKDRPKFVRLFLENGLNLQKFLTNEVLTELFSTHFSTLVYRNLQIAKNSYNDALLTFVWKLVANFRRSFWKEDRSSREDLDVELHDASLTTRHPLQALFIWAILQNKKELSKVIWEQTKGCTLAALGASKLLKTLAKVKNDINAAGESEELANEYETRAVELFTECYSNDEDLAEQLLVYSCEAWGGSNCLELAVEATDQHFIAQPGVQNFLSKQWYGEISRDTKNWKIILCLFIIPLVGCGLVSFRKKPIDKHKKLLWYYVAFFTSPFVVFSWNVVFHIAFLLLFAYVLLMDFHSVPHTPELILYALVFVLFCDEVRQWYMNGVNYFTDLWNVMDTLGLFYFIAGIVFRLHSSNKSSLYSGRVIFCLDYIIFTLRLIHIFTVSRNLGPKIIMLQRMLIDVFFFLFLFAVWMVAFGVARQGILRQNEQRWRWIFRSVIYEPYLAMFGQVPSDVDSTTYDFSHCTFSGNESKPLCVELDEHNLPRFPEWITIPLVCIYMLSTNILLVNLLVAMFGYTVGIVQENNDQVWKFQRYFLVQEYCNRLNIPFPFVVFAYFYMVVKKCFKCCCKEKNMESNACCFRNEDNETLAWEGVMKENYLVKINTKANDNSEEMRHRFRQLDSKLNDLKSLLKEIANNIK

`CC(C)[C@@H]1CC[C@@H](C)C[C@H]1O` [menthol, (−)-menthol] was tested, and the Menthol activation [1] was “barely activated; also recorded: virtually abolished”, the “Shifts in ANAP emission, Ave” value ([2]; ANAP at A875) was 6.61 and the “shift of ANAP emission peak” value ([2]; ANAP at A875 site, redshifted, menthol-induced (0.5 mM), n = 5) was 6.6 ± 0.4 nm. For the same compound, the Shifts_ave ([2]; ANAP incorporation site A875, average shift, menthol activated vs resting state) was 6.61 nm, the Shifts in emission ([2]; ANAP incorporation site A875, menthol activated vs resting state, single measurement) was 6.25 nm and 6.04 nm and 7.45 nm and 7.64 nm and 5.66 nm and the “Emission Peak at menthol activated state” value ([2]; ANAP incorporation site A875, single measurement) was 495.85 nm and 493.43 nm and 494.62 nm and 492.72 nm and 492.66 nm. The Shifts_ave [3] was 1.09 nm, the Shifts_ave [4, 12] was -1.40 nm and the “Emission Peak at menthol activated state” value ([4]; single measurement) was 476.81 nm and 476.91 nm and 474.92 nm and 474.75 nm and 473.64 nm. For the same compound, the Shifts_ave [5, 12] was 0.53 nm, the “Emission Peak at menthol activated state” value ([5]; single measurement) was 477.57 nm and 487.64 nm and 475.42 nm and 485.75 nm and 480.39 nm and the Shifts_ave ([6]; average shift) was 1.07 nm. The Shifts in emission ([6]; single measurement) was 1.34 nm and 1.4 nm and 0.73 nm and 0.79 nm, the “Shifts in ANAP emission, Ave” value ([7]; ANAP at L774) was 2.36 and the Shifts_ave ([7]; ANAP incorporation site L774, average shift, menthol activated vs resting state) was 2.3625 nm. The “Emission Peak at menthol activated state” value ([7]; ANAP incorporation site L774, single measurement) was 484.17 nm and 483.39 nm and 483.98 nm and 484.46 nm and 486.95 nm and 482.2 nm and 480.79 nm, the Shifts_ave [8, 12] was 1.13 nm and the Shifts in emission ([8]; menthol activated vs resting state, single measurement) was 1.32 nm and 1.2 nm and 0.75 nm and 1.07 nm. For the same compound, the “Emission Peak at menthol activated state” value ([8]; single measurement) was 487.02 nm and 492.63 nm and 483.01 nm and 479.1 nm and 483.68 nm, the Shifts_ave [9] was 1.477 nm and the Shifts_ave [10] was 1.02 nm. For the same compound, the Shifts_ave [11, 12] was 1.82 nm and the “Emission Peak at menthol activated state” value ([11]; single measurement) was 487.18 nm and 484.04 nm and 488.11 nm and 490.92 nm and 483.4 nm.
